Where two headings read alike, the source gives them in different places.
Columns and labels:
[1] = Descaling efficiency upon short exposure, weight loss of marble plates (IKW protocol); details: for Average weight loss (g), plates: Example 1, 5% active matter acid solution, 10 seconds immersion + 10 minutes, five plates; for Weight loss plates: Example 4, acid levels 0, 1.5 or 3, solutions prepared 20 hours prior; for Weight difference plates: Example 3, short contact
Procedure: SÖFW-journal, 120, Jahrgang 13:94) for their descaling efficiency upon short exposure.
For each product, five oven-dry marble plates (Carrara marble, 75×150×5 mm, bought at Van Houten Malle) are weighted on a high precision balance and subsequently completely immersed during 10 seconds in a glass beaker holding 950 milliliter of a 5% active matter acid solution. The plates are then removed from the liquor, and put in upright position for 10 minutes during which the acid is allowed for further action. […] The weight loss due to the exposure to the acid is used as a measure for its descaling performance.
(§1) Solutions were allowed to stand until complete dissolution of the lactide before the descaling test was started.
(§2) The required volumes for filling the beakers were prepared as 3% active matter solutions, 20 hours prior to the test.

[2] = labeling according to EU legislation; cited from earlier work
[3] = Descaling efficiency upon prolonged contact, weight loss of immersed marble blocks (IPP protocol); details: for Average weight loss (g), blocks: Example 2, 24 hours immersion in the acid solution, duplicate; for Weight loss blocks: Example 4, acid levels 0, 1.5 or 3
Procedure: as §1, §2

[4] = cited from earlier work
[5] = footnote b: as % anhydrous at 25° C.; cited from earlier work
[6] = Dissolution and pH development of lactide in water; type: physicochemical
Source text: Slow-release lactide is commercially available from the company Galactic, Belgium.

[7] = Descaling efficiency upon prolonged contact, weight loss of immersed marble blocks (IPP protocol); details: Example 3, 5% solution
[8] = cited from earlier work; remark: listed apart in the source

Structure (SMILES): CC(O)C(=O)O (stereo not drawn) [Lactic acid]
- Average weight loss (g), plates [1]: 0.1278 g
- Weight loss plates [1]: 0.09616 g
- label [2]: Xi
- Average weight loss (g), blocks [3]: 9.06 g
- Weight loss blocks ([3]; prolonged contact): 5.2176 g

Structure (SMILES): O=C(O)CC(O)C(=O)O (stereo not drawn) [Malic acid]
- Average weight loss (g), plates [1]: 0.1457 g
- Solubility water 20° C. ([4]; pH 7, 20° C.): >80%
- Solubility calcium salt as % anhydrous at 25° C. [5]: 0.8%^b
- label [2]: Xn
- Average weight loss (g), blocks [3]: 8.735 g

Structure (SMILES): CC1OC(=O)C(C)OC1=O (stereo not drawn) [slow-release lactide]
- pH of 0.1 w/v % solution after 5 minutes ([6]; demineralized water, 25° C., 5 minutes): 3.7
- pH of 0.1 w/v % solution after 10 minutes ([6]; demineralized water, 25° C., 10 minutes): 3.2
- pH of 0.1 w/v % solution after 120 minutes ([6]; demineralized water, 25° C., 120 minutes): 2.5

Structure (SMILES): O=C(O)CC(O)(CC(=O)O)C(=O)O [Citric acid]
- Average weight loss (g), plates [1]: 0.105 g
- Weight difference plates ([1]; 5% solution): 0.0782 g
- Weight loss plates [1]: 0.05778 g
- Weight difference blocks [7]: 3.3186 g
- Average weight loss (g), blocks [3]: 3.8461 g
- Weight loss blocks ([3]; prolonged contact): 2.2648 g

Structure (SMILES): O=CO [formic]
- label [2]: C, Xn

Structure (SMILES): O=C(O)CC(=O)O [malonic]
- label [2]: Xn

Structure (SMILES): O=C(O)CCC(=O)O [Succinic acid]
- Average weight loss (g), plates [1]: 0.1376 g
- Weight difference plates ([1]; 5% solution): 0.0899 g
- Weight loss plates [1]: 0.08734 g
- label [2]: C, Xn
- Weight difference blocks [7]: 7.2479 g
- Average weight loss (g), blocks [3]: 9.304 g
- Weight loss blocks ([3]; prolonged contact): 4.705 g

Structure (SMILES): CC(=O)O [Acetic]
- label [2]: C, Xn

Structure (SMILES): CC1OC(=O)C(C)OC1=O (stereo not drawn) [Lactide, 3,6-Dimethyl-1,4-dioxane-2,5-dione]
- Weight difference plates ([1]; 3% solution): 0.1129 g
- Weight difference plates ([1]; 5% solution): 0.1365 g
- Solubility water 20° C. ([4]; pH 7, 20° C.): Insol.^a
- label [2]: Xi
- Weight difference blocks [7]: 6.0445 g
- Weight difference blocks ([3]; Example 3, 3% solution, prolonged contact): 2.9844 g
- Time for complete dissolution ([6]; room temperature, while stirring): at least 3 hours

Structure (SMILES): O=S(=O)(O)O [sulfuric]
- label [2]: C, T

Structure (SMILES): O=C(O)CCCC(=O)O [glutaric]
- Solubility water 20° C. ([4]; pH 7, 20° C.): 50%
- label [2]: Xi

Structure (SMILES): O=C(O)/C=C\C(=O)O [maleic]
- Solubility water 20° C. ([4]; pH 7): >40%

Structure (SMILES): O=C(O)C(=O)O [oxalic]
- label [2]: C, Xn

Structure (SMILES): NS(=O)(=O)O [sulfamic]
- label [2]: C, Xn, N
- pKa (first value) [8]: 0.1

Structure (SMILES): O=C(O)CO [Glycolic acid]
- Average weight loss (g), plates [1]: 0.1629 g
- Weight loss plates [1]: 0.1115 g
- label [2]: C, Xn
- Average weight loss (g), blocks [3]: 2.629 g
- Weight loss blocks ([3]; prolonged contact): 4.2873 g

Structure (SMILES): O=C(O)/C=C/C(=O)O [fumaric]
- Solubility water 20° C. ([4]; pH 7): 64%

Structure (SMILES): O=C(O)[C@H](O)[C@@H](O)[C@H](O)[C@H](O)CO [gluconic]
- Solubility water 20° C. ([4]; pH 7): >50%
- label [2]: Xn
